Experimental data taken from patent US8435981B2, “2-(heterocyclylbenzyl)pyridazinone derivatives” (Merck Patent Gesellschaft mit Beschränkter Haftung, priority 2006, dated 2013).

How the values were obtained:
Met kinase [1] = molecular target: T1, Met kinase (Homo sapiens, UniProt P08581); test: Met kinase inhibition, enzyme assay (flashplate method); type: biochemical; set-up: 6His (N); purchased Upstate 14-526; host or cells: Sf21 insect cells (S. frugiperda), baculovirus
Experimental: Flashplate Method (Met Kinase)
The test plates used are 96-well Flashplate® microtitre plates from Perkin Elmer (Cat. No. SMP200). The components of the kinase reaction described below are pipetted into the assay plate. The Met kinase and the substrate poly Ala-Glu-Lys-Tyr, (pAGLT, 6:2:5:1), are incubated for 3 hrs at room temperature with radioactively labelled ^33P-ATP in the presence and absence of test substances in a total volume of 100 μl. The reaction is terminated using 150 μl of a 60 mM EDTA solution. After incubation for a further 30 min at room temperature, the supernatants are filtered off with suction, and the wells are washed three times with 200 μl of 0.9% NaCl solution each time. The measurement of the bound radioactivity is carried out by means of a scintillation measuring instrument (Topcount NXT, Perkin-Elmer).
The full value used is the inhibitor-free kinase reaction. This should be approximately in the range 6000-9000 cpm. The pharmacological zero value used is staurosporin in a final concentration of 0.1 mM. The inhibitory values (IC50) are determined using the RS1_MTS program.
Kinase reaction conditions per well:
10 μl of substance to be tested in assay buffer with 10% of DMSO
10 μl of ATP (final concentration 1 μM cold, 0.35 μCi of ^33P-ATP)
50 μl of Met kinase/substrate mixture in assay buffer;
Target sequence in this assay (P08581 974-1390 limits assumed): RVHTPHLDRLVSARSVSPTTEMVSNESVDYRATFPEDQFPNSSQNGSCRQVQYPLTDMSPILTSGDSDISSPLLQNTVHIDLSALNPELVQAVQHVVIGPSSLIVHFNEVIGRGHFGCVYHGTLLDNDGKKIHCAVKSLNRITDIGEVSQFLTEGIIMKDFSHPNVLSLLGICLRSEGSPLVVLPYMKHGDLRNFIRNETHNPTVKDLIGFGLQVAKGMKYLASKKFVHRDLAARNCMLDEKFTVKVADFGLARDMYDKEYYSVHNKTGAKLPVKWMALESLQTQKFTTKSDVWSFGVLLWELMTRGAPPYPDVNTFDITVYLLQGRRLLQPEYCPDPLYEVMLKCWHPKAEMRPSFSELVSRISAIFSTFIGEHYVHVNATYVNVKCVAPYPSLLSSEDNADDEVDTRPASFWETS

Met kinase [2] = molecular target: T1, Met kinase; test: Met kinase inhibition, cell assay; type: cell-based
Target sequence in this assay (P08581 25-1390): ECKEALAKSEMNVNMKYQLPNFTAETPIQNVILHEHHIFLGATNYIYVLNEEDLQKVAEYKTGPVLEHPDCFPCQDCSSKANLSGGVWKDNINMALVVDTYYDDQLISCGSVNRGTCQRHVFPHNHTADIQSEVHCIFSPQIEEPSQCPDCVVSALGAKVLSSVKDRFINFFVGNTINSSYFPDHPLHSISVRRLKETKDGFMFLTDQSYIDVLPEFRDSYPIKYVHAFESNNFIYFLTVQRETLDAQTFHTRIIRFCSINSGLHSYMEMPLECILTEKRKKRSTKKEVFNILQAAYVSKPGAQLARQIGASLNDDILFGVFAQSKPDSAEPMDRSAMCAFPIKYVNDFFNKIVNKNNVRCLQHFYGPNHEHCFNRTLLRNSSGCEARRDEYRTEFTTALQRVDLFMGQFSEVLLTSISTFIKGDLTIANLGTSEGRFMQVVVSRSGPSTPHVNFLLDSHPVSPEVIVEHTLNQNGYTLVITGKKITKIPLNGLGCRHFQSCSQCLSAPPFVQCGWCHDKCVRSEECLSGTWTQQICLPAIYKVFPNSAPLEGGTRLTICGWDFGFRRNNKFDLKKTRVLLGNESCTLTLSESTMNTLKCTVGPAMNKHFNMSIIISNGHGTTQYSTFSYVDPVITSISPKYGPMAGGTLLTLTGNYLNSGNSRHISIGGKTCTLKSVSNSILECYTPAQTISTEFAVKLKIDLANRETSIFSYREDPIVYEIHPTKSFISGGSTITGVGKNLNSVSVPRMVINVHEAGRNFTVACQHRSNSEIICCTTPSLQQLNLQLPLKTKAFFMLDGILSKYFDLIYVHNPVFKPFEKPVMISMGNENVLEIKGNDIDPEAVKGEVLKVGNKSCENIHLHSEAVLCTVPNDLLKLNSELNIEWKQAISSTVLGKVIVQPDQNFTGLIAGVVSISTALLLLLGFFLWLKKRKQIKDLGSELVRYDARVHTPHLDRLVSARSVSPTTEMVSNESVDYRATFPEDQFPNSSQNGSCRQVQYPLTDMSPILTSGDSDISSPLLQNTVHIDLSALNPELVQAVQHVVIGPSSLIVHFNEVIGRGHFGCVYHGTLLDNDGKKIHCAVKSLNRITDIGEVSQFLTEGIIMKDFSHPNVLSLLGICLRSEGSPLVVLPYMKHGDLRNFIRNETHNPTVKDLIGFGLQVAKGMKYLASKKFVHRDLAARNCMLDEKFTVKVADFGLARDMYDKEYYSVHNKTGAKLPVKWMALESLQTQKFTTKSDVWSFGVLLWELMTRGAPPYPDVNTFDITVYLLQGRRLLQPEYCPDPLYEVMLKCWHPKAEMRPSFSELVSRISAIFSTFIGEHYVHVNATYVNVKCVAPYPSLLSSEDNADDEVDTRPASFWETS

Compound	IC50 (Met kinase [1]) [nM]	IC50 (Met kinase [2]) [nM]
CN1CCC(N(C)c2nc(-c3cccc(Cn4nc(-c5cc(F)cc(F)c5)ccc4=O)c3)no2)CC1 [Compound A46, 6-(3,5-difluorophenyl)-2-(3-{5-[methyl-(1-methylpiperidin-4-yl)-amino]-1,2,4-oxadiazol-3-yl}benzyl)-2H-pyridazin-3-one]	10 to 1000	
CN1CCN(C(=O)c2nc(-c3cccc(Cn4nc(-c5cc(F)cc(F)c5)ccc4=O)c3)no2)CC1 [Compound A21, 6-(3,5-difluorophenyl)-2-{3-[5-(4-methylpiperazine-1-carbonyl)-1,2,4-oxadiazol-3-yl]benzyl}-2H-pyridazin-3-one]	10 to 1000	
CCN1CCN(c2nc(-c3cccc(Cn4nc(-c5cc(F)cc(F)c5)ccc4=O)c3)no2)CC1 [Compound A48]	10 to 1000	
CN1CCN(c2nc(-c3cccc(Cn4nc(-c5cc(F)cc(F)c5)ccc4=O)c3)no2)CC1 [Compound A20, 6-(3,5-difluorophenyl)-2-{3-[5-(4-methylpiperazin-1-yl)-1,2,4-oxadiazol-3-yl]benzyl}-2H-pyridazin-3-one]	10 to 1000	
Cc1nc(-c2cccc(Cn3nc(-c4cc(F)cc(F)c4)ccc3=O)c2)no1 [Compound A1, 6-(3,5-difluorophenyl)-2-[3-(5-methyl-1,2,4-oxadiazol-3-yl)benzyl]-2H-pyridazin-3-one]	10 to 1000	
O=c1ccc(-c2cc(F)cc(F)c2)nn1Cc1cccc(-c2noc(N3CCN(CCO)CC3)n2)c1 [Compound A111, 6-(3,5-difluorophenyl)-2-(3-{5-[4-(2-hydroxyethyl)piperazin-1-yl]-1,2,4-oxadiazol-3-yl}benzyl)-2H-pyridazin-3-one]		10 to 1000
O=c1ccc(-c2cc(F)cc(F)c2)nn1Cc1cccc(-c2noc(NCCN3CCOCC3)n2)c1 [Compound A22]	10 to 1000	
COCCCN1CCN(c2nc(-c3cccc(Cn4nc(-c5cc(F)cc(F)c5)ccc4=O)c3)no2)CC1 [Compound A124, 6-(3,5-Difluorophenyl)-2-(3-{5-[4-(3-methoxypropyl)-piperazin-1-yl]-1,2,4-oxadiazol-3-yl}benzyl)-2H-pyridazin-3-one]		10 to 1000
O=c1ccc(-c2cc(F)cc(F)c2)nn1Cc1cccc(-c2ncc(C3CCNCC3)s2)c1 [Compound A91, 6-(3,5-difluorophenyl)-2-[3-(5-piperidin-4-ylthiazol-2-yl)benzyl]-2H-pyridazin-3-one]	10 to 1000	

Next, values leading:

IC50 (Met kinase [1]) [nM]	IC50 (Met kinase [2]) [nM]	Compound
10 to 1000		CCNc1nc(-c2cccc(Cn3nc(-c4cc(F)cc(F)c4)ccc3=O)c2)no1 [Compound A11, 6-(3,5-difluorophenyl)-2-[3-(5-ethylamino-1,2,4-oxadiazol-3-yl)benzyl]-2H-pyridazin-3-one]
10 to 1000		CN(C)CCCNc1nc(-c2cccc(Cn3nc(-c4cc(F)cc(F)c4)ccc3=O)c2)no1 [Compound A12, 6-(3,5-difluorophenyl)-2-{3-[5-(3-dimethylaminopropylamino)-1,2,4-oxadiazol-3-yl]benzyl}-2H-pyridazin-3-one]
10 to 1000		COCCN1CCN(c2nc(-c3cccc(Cn4nc(-c5cc(F)cc(F)c5)ccc4=O)c3)no2)CC1 [Compound A50, 6-(3,5-Difluorophenyl)-2-(3-{5-[4-(2-methoxyethyl)-piperazin-1-yl]-1,2,4-oxadiazol-3-yl}benzyl)-2H-pyridazin-3-one]
10 to 1000		CN1CCC(c2cnc(-c3cccc(Cn4nc(-c5cc(F)cc(F)c5)ccc4=O)c3)o2)CC1 [Compound A88, 6-(3,5-difluorophenyl)-2-{3-[5-(1-methylpiperidin-4-yl)oxazol-2-yl]benzyl}-2H-pyridazin-3-one]
10 to 1000		Cc1cnc(-c2cccc(Cn3nc(-c4cccc(Cl)c4)ccc3=O)c2)o1 [Compound A33]
	10 to 1000	CCOCCN1CCN(c2nc(-c3cccc(Cn4nc(-c5cc(F)cc(F)c5)ccc4=O)c3)no2)CC1 [Compound A123, 6-(3,5-Difluorophenyl)-2-(3-{5-[4-(2-ethoxyethyl)-piperazin-1-yl]-1,2,4-oxadiazol-3-yl}benzyl)-2H-pyridazin-3-one]
